Assay results reported in ChEMBL document CHEMBL1157598, “Direct determination of the insulin-insulin receptor interface using transferred cross-saturation experiments” (J Med Chem, 2010).

How the values were obtained:
[1] = target: Insulin receptor (Homo sapiens) (UniProt P06213); test: Displacement of [125I]insulin from insulin receptor chimera fused with Fc-region of IgG at 300 uM by scintillation proximity assay
[2] = target: Insulin receptor (Homo sapiens) (UniProt P06213); test: Displacement of [125I]insulin from insulin receptor chimera fused with Fc-region of IgG at 100 uM by scintillation proximity assay

Insulin receptor (Homo sapiens), sequence (P06213 28-758 limits assumed): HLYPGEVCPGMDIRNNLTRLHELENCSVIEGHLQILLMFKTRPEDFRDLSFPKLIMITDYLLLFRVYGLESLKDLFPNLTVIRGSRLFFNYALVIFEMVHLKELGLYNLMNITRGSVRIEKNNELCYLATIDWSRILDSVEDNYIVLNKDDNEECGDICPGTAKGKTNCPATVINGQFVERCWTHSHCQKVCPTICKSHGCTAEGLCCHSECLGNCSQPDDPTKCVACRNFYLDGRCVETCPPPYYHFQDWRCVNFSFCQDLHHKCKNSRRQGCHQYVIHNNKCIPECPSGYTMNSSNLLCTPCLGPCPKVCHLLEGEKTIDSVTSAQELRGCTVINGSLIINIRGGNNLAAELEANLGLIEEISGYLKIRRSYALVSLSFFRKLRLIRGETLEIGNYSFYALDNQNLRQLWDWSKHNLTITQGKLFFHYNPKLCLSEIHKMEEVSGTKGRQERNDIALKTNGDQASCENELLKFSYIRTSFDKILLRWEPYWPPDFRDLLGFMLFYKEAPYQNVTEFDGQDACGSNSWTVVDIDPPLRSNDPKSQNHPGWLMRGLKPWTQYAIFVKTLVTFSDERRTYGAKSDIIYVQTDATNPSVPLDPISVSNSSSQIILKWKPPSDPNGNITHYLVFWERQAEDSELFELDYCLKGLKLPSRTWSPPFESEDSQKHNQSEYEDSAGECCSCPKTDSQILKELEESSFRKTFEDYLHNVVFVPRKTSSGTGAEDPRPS
Insulin receptor (Homo sapiens), sequence (P06213 763-1382 limits assumed): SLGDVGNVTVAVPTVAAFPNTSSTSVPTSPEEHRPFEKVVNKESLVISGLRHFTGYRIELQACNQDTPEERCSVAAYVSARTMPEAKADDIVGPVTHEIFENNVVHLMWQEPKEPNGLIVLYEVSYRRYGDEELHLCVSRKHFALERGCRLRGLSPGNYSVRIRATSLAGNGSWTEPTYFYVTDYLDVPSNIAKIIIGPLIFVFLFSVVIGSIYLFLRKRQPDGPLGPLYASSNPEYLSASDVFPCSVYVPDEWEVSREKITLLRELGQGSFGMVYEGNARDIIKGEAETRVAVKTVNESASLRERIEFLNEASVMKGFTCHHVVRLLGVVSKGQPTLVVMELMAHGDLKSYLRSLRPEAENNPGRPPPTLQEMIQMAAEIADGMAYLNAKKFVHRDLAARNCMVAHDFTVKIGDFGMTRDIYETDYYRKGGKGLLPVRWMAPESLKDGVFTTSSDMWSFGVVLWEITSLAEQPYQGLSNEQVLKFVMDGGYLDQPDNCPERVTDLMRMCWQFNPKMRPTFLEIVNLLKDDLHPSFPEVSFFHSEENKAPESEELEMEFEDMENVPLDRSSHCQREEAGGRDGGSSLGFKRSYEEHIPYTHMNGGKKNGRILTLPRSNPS

- Activity [1]: 49%
- Activity [2]: 69%
Compound: O=C(CSc1nnc(Nc2ccccc2F)s1)c1ccc(OC(F)F)cc1
